Structures are written as SMILES. pIC50: −log10 of the molar value.

The test deals with Photoreceptor-specific nuclear receptor (Homo sapiens) (UniProt Q9Y5X4). The experiment in a line: NR2E3 agonists releasing NCOR corepressor, dose response, cell-based, luminescence, CHO-S two-hybrid, late stage (AID 651849). Particulars: CHO-S Gal4-NCOR/VP16-NR2E3 two-hybrid, luciferase.
Chain of Photoreceptor-specific nuclear receptor (Homo sapiens) (Q9Y5X4 whole entry, looked up, the tested form may be a part): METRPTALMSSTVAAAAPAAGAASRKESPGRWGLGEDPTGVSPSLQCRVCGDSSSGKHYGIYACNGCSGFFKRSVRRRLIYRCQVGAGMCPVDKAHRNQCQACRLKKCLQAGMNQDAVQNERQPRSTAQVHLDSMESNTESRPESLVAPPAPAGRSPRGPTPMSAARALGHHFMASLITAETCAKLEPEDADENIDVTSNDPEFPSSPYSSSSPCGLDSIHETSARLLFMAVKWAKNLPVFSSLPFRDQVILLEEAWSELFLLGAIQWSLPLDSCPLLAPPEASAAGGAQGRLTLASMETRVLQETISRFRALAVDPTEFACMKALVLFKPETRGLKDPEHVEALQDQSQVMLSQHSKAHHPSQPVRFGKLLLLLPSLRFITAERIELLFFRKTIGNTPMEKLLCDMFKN
Turning to `Cc1ccc(-c2nc(NC(=O)CSc3nnnn3-c3ccccc3)ns2)cc1`, the pIC50 (commonly the negative decadic logarithm of the IC50, by convention in mol/L) is 6.39. On to `Cc1cccc(OCCCC(=O)Nc2nc3ccccc3[nH]2)c1`, for which the pIC50 is 5.28. The result for `COc1cccc(N2CCN(c3nc(-c4ccccc4C)cc(=O)[nH]3)CC2)c1` reads 6.37. Under `O=C(Nc1cccc(NC(=O)c2c(F)cccc2F)n1)c1c(F)cccc1F` stands 5.10; under `Cc1ccc(NC(=O)CSc2nnnn2-c2ccc3c(c2)OCO3)cc1C`, 6.25; under `Cc1ccc(CN2CC(C(=O)Nc3ncc(C)s3)CC2=O)cc1` (stereo unspecified), 6.29. Turning to `COc1cc2nc(CN3CC=C(c4ccccc4)CC3)[nH]c(=O)c2cc1OC`, the pIC50 is 6.41. The result for `O=c1cc(N2CCN(c3cccc(Cl)c3)CC2)[nH]c(=O)n1C1CCCCC1` reads 7.14; that for `Cc1cnc(NC(=O)CCCc2nc3ccccc3s2)s1`, 6.02; that for `COc1ccc(NC2c3ccccc3C(=O)N2Cc2ccccc2Cl)cc1OC` (stereo unspecified), 5.32.

On to `O=C(O)CC1(CC(=O)Nc2cc(C(F)(F)F)cc(C(F)(F)F)c2)CCCCC1`, for which the pIC50 was 5.40. The result for `O=C(CSc1nnnn1-c1ccc(O)cc1)Nc1ccc(N2CCOCC2)c(Cl)c1` reads 5.90; that for `Cc1ccnc(NC(=O)CSc2cc(=O)n(C)c3ccccc23)c1`, 5.84. As to `COc1ccc2c(CC(=O)Nc3ncc(C)s3)coc2c1`, the negative-log IC50 (pIC50) was 5.72. For the compound `COc1cccc(NC(=O)CSc2nc3ncc(Br)cc3[nH]2)c1`, the pIC50 was 5.45. Under `NC(=O)c1nn(-c2ccccc2)nc1NC(=O)CSc1nnnn1-c1ccc(Cl)cc1` stands 5.80.

Regarding `Cc1cnc(NC(=O)C2CC(=O)N(c3ccc4c(c3)OCCO4)C2)s1` (stereo unspecified), the pIC50 was 5.15. Turning to `COc1ccc(S(=O)(=O)N2CCCCC2)cc1NC(=S)Nc1cccc(Cl)c1C`, the pIC50 is 5.82.

Regarding `O=c1c(Cl)c(N2CCN(c3ccc(F)cc3)CC2)cnn1C12CC3CC(CC(C3)C1)C2`, the pIC50 is 5.48. `Cc1cnc(NC(=O)Cc2ccc(Br)cc2)s1`: the pIC50 was 5.65.

Turning to `Cc1cc(C)cc(NC(=O)CCc2nc3sc4c(c3c(=O)[nH]2)CCCC4)c1`, the pIC50 was 6.60. On to `Cc1cccc(C(=O)N[C@H](C(=O)Nc2ncc(C)s2)C(C)C)c1`, for which the pIC50 is 6.49.

In the case of `Cc1onc(-c2ccccc2Cl)c1C(=O)Nc1nc2c(s1)CCCC2`, the negative logarithm of the IC50 (pIC50) is 6.22.

In the case of `O=C(CSc1nnnn1-c1ccc2c(c1)OCCO2)Nc1nc2c(s1)CCCC2`, the negative logarithm of the IC50 (pIC50) was 6.17.

In the case of `COc1ccc(OC)c(NC(=O)CSc2nnnn2-c2ccc3c(c2)OCO3)c1`, the negative logarithm of the IC50 (pIC50) is 6.52. The result for `COc1ccc(S(=O)(=O)N2CCCCC2)cc1NC(=S)Nc1ccccc1` reads 5.58.

The values above are taken from PubChem BioAssay AID651849 (The Scripps Research Institute Molecular Screening Center, 2012).
